According to patent publication US5654427A, “Indolocarbazole derivatives to treat a pathological condition of the prostate” (Kyowa Hakko Kogyo Co., Ltd., priority 1995, dated 1997):

Target: T1, trkA (Rattus norvegicus, UniProt P35739)
T1 construct: are rat pheochromocytoma cells that bear trkA; host or cells: PC12 rat pheochromocytoma cells
Assay: inhibition of NGF-stimulated trk autophosphorylation (tyrosine phosphorylation) in PC12 cells, anti-phosphotyrosine Western blot; on trk 100 nM (inhibition of phosphorylation): key: +: Inhibited phosphorylation; -: Did not inhibit phosphorylation; on trk 500 nM (inhibition of phosphorylation): key: +: Inhibited phosphorylation; -: Did not inhibit phosphorylation
Format: cell-based
Settings: for trk 100 nM (inhibition of phosphorylation) / trk 500 nM (inhibition of phosphorylation): NGF 50 ng/ml; for trk 500 nM (inhibition of phosphorylation): 500 nM compound
Procedure: Candidate compounds for the inhibition of prostate cell proliferation were selected according to their ability to inhibit the tyrosine kinase activity associated with the trks.
PC12 cells (ATCC #CRL1721) are rat pheochromocytoma cells that bear trkA and differentiate into sympathetic neurons when treated with NGF. […] Cells were incubated at 37° C. in a humidified atmosphere of 10% CO2 and 90% air. […] The cells in each culture were disrupted and cell lysates were prepared by standard techniques known to those skilled in the art. Each lysate was incubated with anti-trk antibody whereby immune complexes were formed. […] The immune complexes were collected on Protein A-Sepharose beads, separated by SDS-polyacrylamide gel electrophoresis (SDS-PAGE), and transferred to polyvinylidene difluoride (PVDF) membranes (Millipore Corp., Bedford, Mass.), using techniques well known to those skilled in the art. The membranes were incubated with anti-phosphotyrosine antibody, which binds to the tyrosine phosphorylated trks, but not to the un-phosphorylated form of trks. Proteins bound to anti-phosphotyrosine antibody were visualized with enhanced chemiluminescence (ECL, Amersham), and are shown as dark "spots" in FIG. 1.
Measurement of the autophosphorylation of trk provides a good index of trk tyrosine kinase activity, and thereby of trk stimulation.
Inhibition was indicated by the absence of a spot migrating with the trk marker shown at the left side of the figure. Partial inhibition was indicated by a spot of reduced size.

T1 sequence (P35739 33-799): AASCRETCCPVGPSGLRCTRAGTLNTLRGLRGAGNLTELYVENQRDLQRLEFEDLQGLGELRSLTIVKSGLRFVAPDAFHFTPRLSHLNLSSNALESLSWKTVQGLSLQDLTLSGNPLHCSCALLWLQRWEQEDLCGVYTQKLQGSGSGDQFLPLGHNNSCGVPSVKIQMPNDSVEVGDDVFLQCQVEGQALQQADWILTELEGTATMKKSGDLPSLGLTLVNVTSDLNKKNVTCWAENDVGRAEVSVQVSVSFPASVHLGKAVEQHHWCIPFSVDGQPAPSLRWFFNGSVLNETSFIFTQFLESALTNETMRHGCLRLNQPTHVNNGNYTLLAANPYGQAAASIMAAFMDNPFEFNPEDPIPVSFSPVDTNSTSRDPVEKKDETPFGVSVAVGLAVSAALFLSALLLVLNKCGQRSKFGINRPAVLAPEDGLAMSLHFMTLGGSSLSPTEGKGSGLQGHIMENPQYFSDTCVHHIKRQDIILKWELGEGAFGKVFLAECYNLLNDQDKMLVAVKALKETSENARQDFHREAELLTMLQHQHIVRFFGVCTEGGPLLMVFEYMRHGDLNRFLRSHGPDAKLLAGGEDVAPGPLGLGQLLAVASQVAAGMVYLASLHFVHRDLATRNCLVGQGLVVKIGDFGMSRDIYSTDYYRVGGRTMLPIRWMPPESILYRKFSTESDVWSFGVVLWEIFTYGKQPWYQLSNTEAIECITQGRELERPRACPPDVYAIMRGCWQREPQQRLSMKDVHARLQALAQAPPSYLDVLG

SMILES	trk 100 nM (inhibition of phosphorylation) (100 nM compound)	trk 500 nM (inhibition of phosphorylation)	phosphorylation response (FIG. 1, spot) (100 nM compound, NGF, Western blot FIG. 1)
CC12OC(CC1(O)CNC(=O)[C@@H](N)CO)n1c3ccccc3c3c4c(c5c6ccccc6n2c5c31)CNC4=O (stereo partly shown) [Compound I-18]	+		
CC12OC(CC1(O)C(=O)Nc1ccccc1)n1c3ccccc3c3c4c(c5c6ccccc6n2c5c31)CNC4=O (stereo not shown) [Compound I-33]	-	+	
CC12OC(CC1(O)CNC(=O)[C@@H](N)CCCCN)n1c3ccccc3c3c4c(c5c6ccccc6n2c5c31)CNC4=O (stereo partly shown) [Compound I-57]	+		
CCNC(=O)OCc1ccc2c(c1)c1c3c(c4c5ccccc5n5c4c1n2C1CC(O)(C(=O)OC)C5(C)O1)CNC3=O (stereo not shown) [Compound I-35]	+	+	
CC(=O)NCC1(O)CC2OC1(C)n1c3ccccc3c3c4c(c5c6ccccc6n2c5c31)C(=O)NC4 (stereo not shown) [Compound I-24]	+		
CC12OC(CC1(O)C(=O)NO)n1c3ccccc3c3c4c(c5c6ccccc6n2c5c31)CNC4=O (stereo not shown) [Compound I-26]	+		
CCOCc1ccc2c(c1)c1c3c(c4c5ccccc5n5c4c1n2C1CC(O)(C(=O)OC)C5(C)O1)CNC3=O (stereo not shown) [Compound I-41]	+	+	
COC(=O)Nc1ccc2c(c1)c1c3c(c4c5ccccc5n5c4c1n2C1CC(O)(C(=O)OC)C5(C)O1)CNC3=O (stereo not shown) [Compound I-37]	+		
COC(=O)C1(O)CC2OC1(C)n1c3ccc(Br)cc3c3c4c(c5c6cc(Br)ccc6n2c5c31)C(=O)NC4 (stereo not shown) [Compound I-39]	+		somewhat diminished (a smaller spot was seen)
CC12OC(CC1(O)C(=O)N1CCOCC1)n1c3ccccc3c3c4c(c5c6ccccc6n2c5c31)CNC4=O (stereo not shown) [Compound I-11]	+		
CC12OC(CC1(O)C=NNC(N)=O)n1c3ccccc3c3c4c(c5c6ccccc6n2c5c31)CNC4=O (stereo not shown) [Compound I-14]	+		
CN(C)C(=O)C1(O)CC2OC1(C)n1c3ccccc3c3c4c(c5c6ccccc6n2c5c31)C(=O)NC4 (stereo not shown) [Compound I-25]	+		
COC(=O)C1(O)CC2OC1(C)n1c3ccccc3c3c4c(c5c6cc(CSc7nc[nH]n7)ccc6n2c5c31)C(=O)NC4 (stereo not shown) [Compound I-72]	-	+	
CNC(=O)C1(O)CC2OC1(C)n1c3ccccc3c3c4c(c5c6ccccc6n2c5c31)C(=O)NC4 (stereo not shown) [Compound I-54]	+		
CC12OC(CC1(O)CNC(=O)[C@@H]1CCCN1)n1c3ccccc3c3c4c(c5c6ccccc6n2c5c31)CNC4=O (stereo partly shown) [Compound I-17]	-	+	
CCNC(=O)Nc1ccc2c(c1)c1c3c(c4c5ccccc5n5c4c1n2C1CC(O)(C(=O)OC)C5(C)O1)CNC3=O (stereo not shown) [Compound I-34]	-	+	
COC(=O)C1(O)CC2OC1(C)n1c3ccccc3c3c4c(c5c6cc(Br)ccc6n2c5c31)C(=O)NC4 (stereo not shown) [Compound I-23]	-	+	
CC12OC(CC1(O)CNC(=O)CN)n1c3ccccc3c3c4c(c5c6ccccc6n2c5c31)CNC4=O (stereo not shown) [Compound I-32]	+		
CC12OC(CC1(O)C(N)=O)n1c3ccccc3c3c4c(c5c6ccccc6n2c5c31)CNC4=O (stereo not shown) [Compound I-4]	+	+	
O=C1NCc2c1c1c3ccccc3n(CCCO)c1c1c2c2ccccc2n1CCCO [II-4]		+	
CC12OC(CC1(O)CN=[N+]=[N-])n1c3ccccc3c3c4c(c5c6ccccc6n2c5c31)CNC4=O (stereo not shown) [Compound I-21]	-	+	
CC(=O)OCC1(O)CC2OC1(C)n1c3ccccc3c3c4c(c5c6ccccc6n2c5c31)C(=O)NC4 (stereo not shown) [Compound I-6]	+		
COC(=O)C1(O)CC2OC1(C)n1c3ccccc3c3c4c(c5c6cc(C(Sc7ccccc7)Sc7ccccc7)ccc6n2c5c31)C(=O)NC4 (stereo not shown) [Compound I-58]	-	+	
CCCNC(=O)C1(O)CC2OC1(C)n1c3ccccc3c3c4c(c5c6ccccc6n2c5c31)C(=O)NC4 (stereo not shown) [Compound I-10]	+		
CSCC1(O)CC2OC1(C)n1c3ccccc3c3c4c(c5c6ccccc6n2c5c31)C(=O)NC4 (stereo not shown) [Compound I-56]		+	
CC12OC(CC1=O)n1c3ccccc3c3c4c(c5c6ccccc6n2c5c31)CNC4=O (stereo not shown) [Compound I-52]	+		
CC12OC(CC1(O)C(=O)NCCO)n1c3ccc(Br)cc3c3c4c(c5c6cc(Br)ccc6n2c5c31)CNC4=O (stereo not shown) [Compound I-43]	-	+	

Now from value to compound, other results behind:

trk 100 nM (inhibition of phosphorylation) (100 nM compound)	trk 500 nM (inhibition of phosphorylation)	SMILES	phosphorylation response (FIG. 1, spot) (100 nM compound, NGF, Western blot FIG. 1)
-	+	COC(=O)C1(O)CC2OC1(C)n1c3ccccc3c3c4c(c5c6cc(C[S+]([O-])c7ncccn7)ccc6n2c5c31)C(=O)NC4 (stereo not shown) [Compound I-63]	
-	+	COC(=O)C1(O)CC2OC1(C)n1c3ccccc3c3c4c(c5c6cc(C=NNC7=NCCN7)ccc6n2c5c31)C(=O)NC4 (stereo not shown) [Compound I-61]	
+	+	COC(=O)C1(O)CC2OC1(C)n1c3ccccc3c3c4c(c5c6cc(C=NNc7ccccn7)ccc6n2c5c31)C(=O)NC4 (stereo not shown) [Compound I-70]	
+	+	COC(=O)C1(O)CC2OC1(C)n1c3ccccc3c3c4c(c5c6cc(CSc7ncccn7)ccc6n2c5c31)C(=O)NC4 (stereo not shown) [Compound I-62]	
-	+	COC(=O)C1(O)CC2OC1(C)n1c3ccccc3c3c4c(c5c6cc(CSCc7ccco7)ccc6n2c5c31)C(=O)NC4 (stereo not shown) [Compound I-68]	
-	+	COC(=O)C1(O)CC2OC1(C)n1c3ccccc3c3c4c(c5c6cc(C7SCCS7)ccc6n2c5c31)C(=O)NC4 (stereo not shown) [Compound I-59]	
-	+	CCSCc1ccc2c(c1)c1c3c(c4c5cc(CO)ccc5n5c4c1n2C1CC(O)(C(=O)OC)C5(C)O1)CNC3=O (stereo not shown) [Compound I-65]	
	+	COC(=O)C1(O)CC2OC1(C)n1c3ccccc3c3c4c(c5c6cc(C=NN7CCN(C)CC7)ccc6n2c5c31)C(=O)NC4 (stereo not shown) [Compound I-76]	
	+	COC(=O)C1(O)CC2OC1(C)n1c3ccccc3c3c4c(c5c6cc(C=NN(C)C)ccc6n2c5c31)C(=O)NC4 (stereo not shown) [Compound I-75]	
-	+	CC[S+]([O-])Cc1ccc2c(c1)c1c3c(c4c5cc(C[S+]([O-])CC)ccc5n5c4c1n2C1CC(O)(C(=O)OC)C5(C)O1)CNC3=O (stereo not shown) [Compound I-66]	
-	+	COC(=O)C1(O)CC2OC1(C)n1c3ccccc3c3c4c(c5c6cc(CSCCN(C)C)ccc6n2c5c31)C(=O)NC4 (stereo not shown) [Compound I-71]	
-	+	C=CCn1c2ccccc2c2c3c(c4c5ccccc5n(CC=C)c4c21)C(=O)NC3 [II-1]	
